Assay results as given in patent US20130150434A1 (SOMAXON PHARMACEUTICALS, INC., priority 2006, published 2013).

Key:
[1] = tested on: chronic primary insomnia patients with sleep maintenance difficulties; experiment: Phase III study of doxepin, rebound insomnia by PSG during the 2-day discontinuation period; format: in vivo, human; conditions: for WASO (rebound insomnia analysis), Median: Baseline = worst WASO value of Nights −6 and −5; for WASO (rebound insomnia analysis), Mean (SD): Baseline = worst WASO value of Nights −6 and −5 from Visit 3; for WASO, Change from Baseline to Visit 7, Night 36, Median / WASO, Change from Baseline to Visit 7, Night 37, Median / WASO, Change from Baseline to Visit 7, Night 36, Mean (SD) / WASO, Change from Baseline to Visit 7, Night 37, Mean (SD): discontinuation
Text: The term “rebound insomnia” refers to the common occurrence that a person may have more trouble sleeping the first few nights after a sedative medicine is stopped than before starting the medicine. After more than a few days' use, discontinuing a hypnotic or sedative medication can make the original sleep problem worse and can cause an increase anxiety. Rebound insomnia may be measured as the mean change in mean wake time after sleep onset (WASO) from baseline to the first night of discontinuation.
Patients were discharged from the sleep center after all final study-related procedures had been completed on the Final Study Day (Day 38, Early Termination [ET]).
(§1) Safety: Safety was assessed based on AEs, clinical laboratory tests (hematology, serum chemistry, and urinalysis), vital signs, physical examinations, neurological assessments, 12-lead ECGs, and ratings of hangover/residual effects (digit-symbol substitution test (DSST), symbol copying test (SCT), and the visual analog scale (VAS) for sleepiness), assessment of rebound insomnia using PSG recordings during the discontinuation period, and withdrawal symptoms using the benzodiazepine withdrawal symptom questionnaire (BWSQ).

[2] = Phase III study of doxepin, safety assessments (body weight, residual effects, withdrawal symptoms, laboratory tests, ECG); format: in vivo, human
Description: Safety assessments including adverse events (AEs), vitals, and neurological assessments were performed throughout the study period. Other safety assessments, including clinical laboratory tests, electrocardiograms (ECGs), and physical examinations (PEs) were performed before and after the study treatment period. For early termination, all safety assessments, including AEs neurological assessments, clinical laboratory tests, ECGs, vitals, and PEs were performed.
as §1
Safety analyses included all randomized patients who received at least one dose of double-blind study medication. Treatment assignment for safety data was based on the treatment actually received.

[3] = tested on: chronic primary insomnia patients with sleep maintenance difficulties; experiment: Phase III study of doxepin, 8-hour PSG efficacy variables (WASO, TST, SE, LPS)
Description: Patients with at least a 3-month history of primary insomnia, according to Diagnostic and Statistical Manual of Mental Disorders, Fourth Edition Text Revision (DSM-IV-TR)-defined primary insomnia were enrolled.
Patients were screened (Visit 1) to determine study eligibility and asked to discontinue any protocol-disallowed prescription or over-the-counter (OTC) medications used as sleep medication. At the beginning of the first week (polysomnography [PSG] Screening, Visit 2), eligible patients began two weeks of single-blind placebo dosing and had two consecutive nights of 8-hour PSG recording in the sleep center. Patients were required to meet the PSG screening criteria to remain eligible for the study. Patients were allowed to leave the sleep center during the day after the PSG Screening nights and continued to take single-blind placebo after PSG Screening (Visit 2) for five consecutive nights at home.
Patients were allowed to leave the sleep center during the day after the PSG nights and continued taking single-blind placebo for five consecutive nights at home.
After the PSG Screening and Baseline periods, patients began a 35-day double-blind treatment period during which they were given study drug supplies at each scheduled visit (Visits 4, 5, and 6). The scheduled study visits consisted of two consecutive nights of 8-hour PSG recording in the sleep center and next day assessments to assess sedative efficacy. Patients were asked to complete hangover/residual effects assessments, morning and evening questionnaires, and the Benzodiazepine Withdrawal Symptom Questionnaire (BWSQ) at each of these visits.
Primary Efficacy: The primary efficacy variable was wake after sleep onset (WASO) obtained on Night 1 as determined by PSG recordings using the ITT analysis set.
Additional PSG efficacy variables: Additional efficacy variables obtained on the first PSG assessment nights (Nights 1 and 29) included WASO (Night 29), wake time during sleep (WTDS), total sleep time (TST), sleep efficiency (SE), including whole night, third of the night, and by hour, and latency to persistent sleep (LPS), latency to Stage 2 sleep, number of awakenings after sleep onset (NAASO), total wake time (TWT), wake time after sleep (WTAS), and, sleep architecture including percentage and minutes of Stage 1, 2, and 3/4 non-rapid eye movement (NREM) sleep, percentage and minutes of rapid eye movement (REM) sleep, and latency to REM sleep.
Methods used to analyze other endpoints were the same as those used to analyze WASO. For LPS, latency to REM sleep, latency to Stage 2 sleep, and LSO, data were expected to be log-normally distributed and were analyzed using log-transformed values (base 10). The safety data were analyzed primarily using descriptive statistical methods.
All efficacy analyses were performed on the Intent-to-treat (ITT) analysis set. […] Data were analyzed as randomized and based on observed cases.

[4] = Doxepin HCl 3 mg group, Night 36, N = 67 evaluable
[5] = Doxepin HCl 3 mg group, Night 36 and Night 37, N = 67 evaluable
[6] = Doxepin HCl 3 mg group, Visit 7, Night 37 (discontinuation)
[7] = Doxepin HCl 6 mg group, Night 36, N = 68 evaluable
[8] = Doxepin HCl 6 mg group, Night 36 and Night 37, N = 68 evaluable
[9] = Doxepin HCl 6 mg group, Visit 7, Night 37 (discontinuation)
[10] = doxepin 3 mg group, Baseline, ITT
[11] = doxepin 3 mg, Night 1, ITT, p<0.0001 vs placebo

Rebound insomnia (mean change in mean WASO from baseline to the first night of discontinuation) ([1]; 3 mg and 6 mg, 2-day discontinuation period following abrupt discontinuation of 35 nights of treatment): no rebound insomnia
Largest percentage of patients experiencing rebound effects ([1]; 3 mg group at night 36, as measured by mean change in WASO): 15%
WASO (rebound insomnia analysis), Median ([1]; Doxepin HCl 3 mg group): 79.5 min
WASO (rebound insomnia analysis), Mean (SD) ([1]; Doxepin HCl 3 mg group): 83.5 (41.35) minutes
Rebound insomnia frequency: patients with LPS change from Baseline ≧20 minutes at Visit 7, count (%) [1, 4]: 7 (10%)
Rebound insomnia frequency: patients with TST change from Baseline ≦−30 minutes at Visit 7, count (%) [1, 4]: 9 (13%)
Rebound insomnia frequency: patients with WASO change from Baseline ≧35 minutes at Visit 7, count (%) [1, 4]: 10 (15%)
Rebound insomnia frequency: patients with LPS change from Baseline ≧20 minutes at Visit 7, count (%) [1, 5]: 3 (4%)
Rebound insomnia frequency: patients with TST change from Baseline ≦−30 minutes at Visit 7, count (%) [1, 5]: 3 (4%)
Rebound insomnia frequency: patients with WASO change from Baseline ≧35 minutes at Visit 7, count (%) [1, 5]: 1 (1%)
WASO, Median ([1]; Doxepin HCl 3 mg group, Visit 7, Night 36 (discontinuation)): 50.5 min
WASO, Mean (SD) ([1]; Doxepin HCl 3 mg group, Visit 7, Night 36 (discontinuation, single-blind placebo after 35 nights of treatment)): 65.8 (48.72) minutes
WASO, Mean (SD) [1, 6]: 58.4 (42.76) minutes
WASO, Median [1, 6]: 48.8 min
WASO, Change from Baseline to Visit 7, Night 36, Median ([1]; Doxepin HCl 3 mg group): -22.0 min
WASO, Change from Baseline to Visit 7, Night 37, Median ([1]; Doxepin HCl 3 mg group): -20.8 min
WASO, Change from Baseline to Visit 7, Night 36, Mean (SD) ([1]; Doxepin HCl 3 mg group, 95% CI (−30.28, −6.57)): −18.4 (48.60) minutes
WASO, Change from Baseline to Visit 7, Night 37, Mean (SD) ([1]; Doxepin HCl 3 mg group, 95% CI (−35.26, −14.11)): −24.7 (43.02) minutes
WASO (rebound insomnia analysis), Median ([1]; Doxepin HCl 6 mg group): 72.5 min
WASO (rebound insomnia analysis), Mean (SD) ([1]; Doxepin HCl 6 mg group): 78.4 (40.37) minutes
Rebound insomnia frequency: patients with LPS change from Baseline ≧20 minutes at Visit 7, count (%) [1, 7]: 8 (12%)
Rebound insomnia frequency: patients with TST change from Baseline ≦−30 minutes at Visit 7, count (%) [1, 7]: 6 (9%)
Rebound insomnia frequency: patients with WASO change from Baseline ≧35 minutes at Visit 7, count (%) [1, 7]: 7 (10%)
Rebound insomnia frequency: patients with LPS change from Baseline ≧20 minutes at Visit 7, count (%) [1, 8]: 2 (3%)
Rebound insomnia frequency: patients with TST change from Baseline ≦−30 minutes at Visit 7, count (%) [1, 8]: 2 (3%)
Rebound insomnia frequency: patients with WASO change from Baseline ≧35 minutes at Visit 7, count (%) [1, 8]: 3 (4%)
WASO, Median ([1]; Doxepin HCl 6 mg group, Visit 7, Night 36 (discontinuation)): 46.0 min
WASO, Mean (SD) ([1]; Doxepin HCl 6 mg group, Visit 7, Night 36 (discontinuation, single-blind placebo after 35 nights of treatment)): 55.9 (40.26) minutes
WASO, Mean (SD) [1, 9]: 56.0 (42.68) minutes
WASO, Median [1, 9]: 49.0 min
WASO, Change from Baseline to Visit 7, Night 36, Median ([1]; Doxepin HCl 6 mg group): -16.5 min
WASO, Change from Baseline to Visit 7, Night 37, Median ([1]; Doxepin HCl 6 mg group): -20.0 min
WASO, Change from Baseline to Visit 7, Night 36, Mean (SD) ([1]; Doxepin HCl 6 mg group, 95% CI (−34.99, −12.27)): −23.6 (46.93) minutes
WASO, Change from Baseline to Visit 7, Night 37, Mean (SD) ([1]; Doxepin HCl 6 mg group, 95% CI (−36.26, −12.38)): −24.3 (47.41) minutes
SMILES: CN(C)CCC=C1c2ccccc2COc2ccccc21 [Doxepin, 11-(3-dimethylaminopropylidene)-6,11-dihydrodibenzo (b,e)oxepin]
Changes in other clinical laboratory tests, vital sign measurements, physical examinations, neurological assessments, or ECG parameters ([2]; 3 mg and 6 mg): no clinically relevant changes
Next day residual effects ([2]; 3 mg and 6 mg): no significant next day residual effects
Withdrawal effects ([2]; 3 mg and 6 mg, abrupt discontinuation): no withdrawal effects
Body Weight, Change from Screening, mean (±SD) ([2]; Doxepin HCl 3 mg): 0.3 (2.21) kg
Body Weight, Change from Screening, mean (±SD) ([2]; Doxepin HCl 6 mg): 0.0 (2.19) kg
Sedative tolerance (sleep maintenance variables across study visits, PSG) ([3]; 3 mg and 6 mg, 35-day double-blind treatment): no evidence of sedative tolerance
8-hour WASO, Mean (SD) ([3]; doxepin 3 mg group, Baseline (single-blind placebo), ITT): 67.8 (33.56) minutes
LPS (latency to persistent sleep, PSG), Mean (SD) [3, 10]: 35.9 (29.84) minutes
SE - Hour 8 (PSG), Mean (SD) [3, 10]: 74.9 (22.87) %
TST (8-hour PSG), Mean (SD) [3, 10]: 380.3 (46.09) minutes
8-hour WASO, Mean (SD) ([3]; doxepin 3 mg, Night 1 (primary), ITT, p<0.0001 vs placebo): 41.4 (31.51) minutes
LPS (PSG), Mean (SD) ([3]; doxepin 3 mg, Night 1, ITT, p 0.0110 vs placebo): 26.7 (23.42) minutes
SE (8-hour PSG), Mean (SD) [3, 11]: 86.5 (8.68) %
SE - Hour 8 (PSG), Mean (SD) [3, 11]: 87.8 (14.28) %
TST (8-hour PSG), Mean (SD) [3, 11]: 415.3 (41.65) minutes
8-hour WASO, Mean (SD) ([3]; doxepin 3 mg, Night 15, ITT, p 0.0053 vs placebo): 44.8 (27.26) minutes
